Data reported in the NIST ThermoML archive (doi:10.1021/je0601457).

Test: xn = mol fraction of the nth substance listed

Cc1nccnc1C [2,3-dimethylpyrazine] + O=C=O
Fluid (supercritical or subcritical phases), Linear displacement technique
Conditions	mass density [kg/m3]
328.55 K, 14100 kPa, x1 = 0.291	857
328.55 K, 15620 kPa, x1 = 0.01	757
328.55 K, 16930 kPa, x1 = 0.291	859
329.65 K, 6660 kPa, x1 = 0.565	912
329.65 K, 8240 kPa, x1 = 0.565	914
329.65 K, 14590 kPa, x1 = 0.565	919
329.75 K, 12170 kPa, x1 = 0.033	656
329.75 K, 12970 kPa, x1 = 0.033	684
329.75 K, 14310 kPa, x1 = 0.033	713
329.75 K, 16930 kPa, x1 = 0.033	765
329.85 K, 12860 kPa, x1 = 0.108	845
329.85 K, 14590 kPa, x1 = 0.108	855
329.85 K, 19000 kPa, x1 = 0.108	879
330.35 K, 11790 kPa, x1 = 0.157	902
330.35 K, 14240 kPa, x1 = 0.157	919
330.35 K, 17550 kPa, x1 = 0.157	937
331.65 K, 11550 kPa, x1 = 0.086	645
331.65 K, 12210 kPa, x1 = 0.057	762
331.65 K, 12830 kPa, x1 = 0.057	785
331.65 K, 14030 kPa, x1 = 0.086	676
331.65 K, 15620 kPa, x1 = 0.086	689
331.65 K, 19380 kPa, x1 = 0.057	886
332.85 K, 12790 kPa, x1 = 0.049	767
332.85 K, 14620 kPa, x1 = 0.049	811
332.85 K, 15690 kPa, x1 = 0.049	834
333.95 K, 5520 kPa, x1 = 0.736	855
333.95 K, 12830 kPa, x1 = 0.736	858
333.95 K, 19520 kPa, x1 = 0.736	858
335.15 K, 12970 kPa, x1 = 0.027	605
335.15 K, 13550 kPa, x1 = 0.027	633
335.15 K, 14590 kPa, x1 = 0.027	668
338.75 K, 11790 kPa, x1 = 0.184	860
338.75 K, 14170 kPa, x1 = 0.184	874
338.75 K, 16720 kPa, x1 = 0.184	886
340.75 K, 12790 kPa, x1 = 0.108	786
340.75 K, 14030 kPa, x1 = 0.108	810
340.75 K, 17340 kPa, x1 = 0.108	837
340.75 K, 20170 kPa, x1 = 0.108	858
341.25 K, 10790 kPa, x1 = 0.01	327
341.95 K, 8900 kPa, x1 = 0.433	918
341.95 K, 12340 kPa, x1 = 0.433	926
341.95 K, 17480 kPa, x1 = 0.433	934
341.95 K, 23830 kPa, x1 = 0.433	945
343.15 K, 13410 kPa, x1 = 0.057	679
343.15 K, 14660 kPa, x1 = 0.057	719
343.15 K, 16170 kPa, x1 = 0.057	750
343.25 K, 14210 kPa, x1 = 0.033	585
343.25 K, 14930 kPa, x1 = 0.033	615
343.25 K, 16340 kPa, x1 = 0.033	657
345.05 K, 14100 kPa, x1 = 0.049	698
345.05 K, 15410 kPa, x1 = 0.049	745
345.05 K, 17240 kPa, x1 = 0.049	791
345.85 K, 15140 kPa, x1 = 0.086	626
345.85 K, 15900 kPa, x1 = 0.086	638
347.05 K, 11760 kPa, x1 = 0.291	853
347.05 K, 14070 kPa, x1 = 0.291	855
347.05 K, 18860 kPa, x1 = 0.291	857
347.65 K, 8210 kPa, x1 = 0.565	895
347.65 K, 11830 kPa, x1 = 0.565	901
347.65 K, 18520 kPa, x1 = 0.565	907
347.85 K, 12690 kPa, x1 = 0.184	828
347.85 K, 13450 kPa, x1 = 0.184	837
347.85 K, 15690 kPa, x1 = 0.184	853
348.35 K, 9900 kPa, x1 = 0.433	906
348.35 K, 15140 kPa, x1 = 0.433	917
348.35 K, 23070 kPa, x1 = 0.433	931
350.75 K, 14660 kPa, x1 = 0.108	747
350.75 K, 15690 kPa, x1 = 0.108	766
350.75 K, 17410 kPa, x1 = 0.108	790
352.25 K, 14550 kPa, x1 = 0.057	618
352.25 K, 16340 kPa, x1 = 0.057	678
352.25 K, 18760 kPa, x1 = 0.057	731
354.15 K, 16900 kPa, x1 = 0.157	847
354.15 K, 19280 kPa, x1 = 0.157	865
354.15 K, 25210 kPa, x1 = 0.157	904
355.25 K, 14550 kPa, x1 = 0.049	608
355.25 K, 15410 kPa, x1 = 0.049	652
355.25 K, 17280 kPa, x1 = 0.049	702
357.15 K, 13760 kPa, x1 = 0.433	897
357.15 K, 17310 kPa, x1 = 0.433	905
357.15 K, 21970 kPa, x1 = 0.433	914
358.65 K, 12930 kPa, x1 = 0.291	848
358.65 K, 15410 kPa, x1 = 0.291	852
358.65 K, 20590 kPa, x1 = 0.291	855
360.55 K, 6970 kPa, x1 = 0.736	846
360.55 K, 11100 kPa, x1 = 0.736	850
360.55 K, 17970 kPa, x1 = 0.736	853
362.95 K, 16930 kPa, x1 = 0.086	561
362.95 K, 17410 kPa, x1 = 0.086	574
362.95 K, 19410 kPa, x1 = 0.086	604
365.05 K, 16480 kPa, x1 = 0.057	573
365.05 K, 18310 kPa, x1 = 0.057	636
365.05 K, 20170 kPa, x1 = 0.057	679
365.05 K, 23210 kPa, x1 = 0.057	725
365.55 K, 19340 kPa, x1 = 0.184	818
365.55 K, 24520 kPa, x1 = 0.184	848
365.55 K, 45000 kPa, x1 = 0.184	900
368.45 K, 17140 kPa, x1 = 0.108	690
368.45 K, 19480 kPa, x1 = 0.108	731
368.45 K, 25100 kPa, x1 = 0.108	791
368.45 K, 34900 kPa, x1 = 0.108	848
371.85 K, 15900 kPa, x1 = 0.027	402
371.85 K, 17140 kPa, x1 = 0.027	432
373.25 K, 16720 kPa, x1 = 0.049	558
373.25 K, 17900 kPa, x1 = 0.049	605
373.25 K, 20100 kPa, x1 = 0.049	667
373.55 K, 9210 kPa, x1 = 0.565	867
373.55 K, 12380 kPa, x1 = 0.565	873
373.55 K, 18520 kPa, x1 = 0.565	883
374.25 K, 17410 kPa, x1 = 0.086	507
374.25 K, 18100 kPa, x1 = 0.086	521
374.25 K, 18900 kPa, x1 = 0.086	540
375.05 K, 18100 kPa, x1 = 0.033	466
375.05 K, 19410 kPa, x1 = 0.033	499
375.05 K, 20690 kPa, x1 = 0.033	526
375.85 K, 20590 kPa, x1 = 0.157	805
375.85 K, 23340 kPa, x1 = 0.157	829
375.85 K, 26520 kPa, x1 = 0.157	856
380.65 K, 12760 kPa, x1 = 0.433	852
380.65 K, 16100 kPa, x1 = 0.433	861
380.65 K, 21660 kPa, x1 = 0.433	876
381.45 K, 15210 kPa, x1 = 0.291	831
381.45 K, 15690 kPa, x1 = 0.291	830
381.45 K, 21340 kPa, x1 = 0.291	841

Liquid, linear displacement
Conditions	mass density [kg/m3]
328.55 K, x1 = 0.291	855
329.65 K, x1 = 0.565	909
329.75 K, x1 = 0.033	560
329.85 K, x1 = 0.108	822
330.35 K, x1 = 0.157	884
331.65 K, x1 = 0.057	719
331.65 K, x1 = 0.086	627
332.85 K, x1 = 0.049	708
333.95 K, x1 = 0.736	854
338.75 K, x1 = 0.184	852
340.75 K, x1 = 0.108	771
341.95 K, x1 = 0.433	915
343.15 K, x1 = 0.057	639
345.05 K, x1 = 0.049	638
345.85 K, x1 = 0.086	579
347.05 K, x1 = 0.291	852
347.65 K, x1 = 0.565	893
347.85 K, x1 = 0.184	826
348.35 K, x1 = 0.433	902
350.75 K, x1 = 0.108	725
354.15 K, x1 = 0.157	814
357.15 K, x1 = 0.433	886
358.65 K, x1 = 0.291	848
360.55 K, x1 = 0.736	845
362.95 K, x1 = 0.086	530
365.55 K, x1 = 0.184	774
368.45 K, x1 = 0.108	663
373.55 K, x1 = 0.565	865
374.25 K, x1 = 0.086	490
375.85 K, x1 = 0.157	764
380.65 K, x1 = 0.433	848
381.45 K, x1 = 0.291	829
